Publication PMC12021911, “Comparative evaluation of antimicrobial peptides: effect on formation, metabolic activity and viability of Klebsiella pneumoniae biofilms” (Frontiers in Microbiology, 2025)
Values after ≈ are worked out from the molar mass of the structure shown. Where two headings read alike, the source gives them in different places. Bridge positions count the residues as written; N and C are the ends. Square brackets hold non-standard residues; d marks the D form. Peptide text beside a SMILES is read from it. * marks the point of attachment. X1 = CC[C@H](C)CCCCC(=O)*; Dab = NCC[C@H](N)C(=O)O

Tests used:
Type in all cases: cell-based, Klebsiella pneumoniae
[1] = system: K. pneumoniae 42KC-108224-1; assay: microbe, parasite or virus in culture
Procedure: (§1) Three different strains of K. pneumoniae were investigated in this study which were originally isolated from a human, a pig and a dog (Table 2) and characterized in previous studies ([Krieger et al., 2021]; [Krieger et al., 2022]). Minimum inhibitory concentration (MIC) values were determined according to EUCAST guidelines by microdilution test and are shown in Supplementary Table S1.
(§2) Table S1 Minimum inhibitory concentration (MIC) values of the three K. pneumoniae strains,
(§3) determined according to EUCAST guidelines by microdilution test.
(§4) MIC [µg/mL] of indicated antibiotics

[2] = system: K. pneumoniae 17349; assay: microbe, parasite or virus in culture
Procedure: as §1, §2, §3, §4

[3] = system: K. pneumoniae IMT40061; assay: microbe, parasite or virus in culture
Procedure: as §1, §2, §3, §4

[4] = system: K. pneumoniae 42KC-108224-1; assay: fluorescence assay on mature biofilms (SYTO 9 / propidium iodide); details: 64 μg/mL in PBS, 24 h on 22 h-old biofilm; mean, n ≥ 3
Procedure: (§5) The proportion of living and dead bacteria was determined using the fluorescence assay FilmTracer™ LIVE/DEAD biofilm viability kit (L10316, Life Technologies GmbH, Darmstadt, Germany). A bacterial count of 2 × 10^7 CFU/mL was inoculated in 50% BHI broth, 100 μL were added to a 96-well plate in duplicate and plates were incubated for 22 h at 37°C. Wells containing only BHI broth were used as blank. After incubation, the supernatant was discarded and plates were washed three times with sterile PBS. […] After incubation for 24 h at 37°C and washing three times with sterile PBS, 50 μL filter-sterilized water containing 0.15 μL each of SYTO™ 9 stain and propidium iodide stain was added to each well. Plates were incubated for 20 min at room temperature in the dark. The staining solution was discarded and the plates were washed three times with sterile PBS. The fluorescence intensity of the SYTO™ 9 stain (λex = 470 nm, λem = 500 nm) and the propidium iodide stain (λex = 490 nm, λem = 635 nm) were measured on a BioTek Synergy H1 microplate reader and corrected for the blank values. The percentage of fluorescence intensity was calculated based on the negative control. The SYTO™ 9/propidium iodide ratio was calculated. The experiment was conducted at least three times.

[5] = system: K. pneumoniae IMT40061; assay: as above; details: 24 h treatment of mature biofilm; at very high concentrations
Procedure: as §5

[6] = system: all three K. pneumoniae strains; assay: crystal violet assay, biofilm formation, statements on all three strains
Procedure: To quantify biofilm formation, the crystal violet assay was done as described previously ([Sager et al., 2015]). Specifically, bacteria were grown in 10 mL BHI broth for 18 h at 37°C on a shaking platform (120 rpm). Subsequently 100 μL of a 1:100 dilution of this overnight culture in BHI was transferred to 96-well plates and incubated for 24 h at 37°C. Wells with BHI broth only were used as blank. Five replicates were investigated per strain. After incubation the suspension was discarded, plates were washed three times with tap water and air-dried. Subsequently, 100 μL of 1% crystal violet (T123.1, Th. Geyer GmbH & Co. KG, Renningen, Germany) in distilled water was added to each well and incubated for 15 min at room temperature before rinsing the plates four times with tap water and air-drying them again. One hundred μL of 99% ethanol were added to each well for 15 min at room temperature to dissolve the remaining crystal violet. Subsequently, the optical density at 540 nm (OD540) was measured using the BioTek Synergy H1 microplate reader to quantify biofilm mass remaining in the wells. OD values of the blank were subtracted from all the samples. Each experiment was conducted three times.
To determine the effect of the AMPs on biofilm formation of K. pneumoniae, a standardized bacterial suspension and serial dilutions of antimicrobial agents were incubated together as conducted for determination of planktonic growth. After incubation the crystal violet assay was performed as described above. The percentage of biofilm formation was calculated based on the growth control. The experiment was conducted at least three times.

[7] = Klebsiella pneumoniae, 42KC1082241, EUCAST guidelines, microdilution test, read-out: MIC
[8] = Klebsiella pneumoniae, 17349, EUCAST guidelines, microdilution test, read-out: MIC
[9] = Klebsiella pneumoniae, IMT40061, EUCAST guidelines, microdilution test, read-out: MIC
[10] = EUCAST guidelines, microdilution test
[11] = Klebsiella pneumoniae, 42KC1082241

Compound	MIC [1, 7] [µg/mL]	MIC [2, 8] [µg/mL]	MIC [3, 9] [µg/mL]	further results
COc1c(N2C[C@@H]3CCCN[C@@H]3C2)c(F)cc2c(=O)c(C(=O)O)cn(C3CC3)c12 [Moxifloxacin]	0.0625 (≈ 0.156 µM)	0.25 (≈ 0.623 µM)	> 4	
C[C@H]1c2cccc(O)c2C(=O)C2=C(O)[C@]3(O)C(=O)C(C(N)=O)=C(O)[C@@H](N(C)C)[C@@H]3[C@@H](O)[C@@H]21 [Doxycycline]	1 (≈ 2.25 µM)	0.5 (≈ 1.13 µM)	4 (≈ 9 µM)	
CCN1CCN(C(=O)N[C@@H](C(=O)N[C@@H]2C(=O)N3[C@@H]2SC(C)(C)[C@@H]3C(=O)O)c2ccccc2)C(=O)C1=O [Piperacillin]	4 (≈ 7.73 µM)	2 (≈ 3.86 µM)	> 64	
CC[C@H](C)CCCCC(=O)N[C@@H](CCN)C(=O)N[C@H](C(=O)N[C@@H](CCN)C(=O)N[C@H]1CCNC(=O)[C@H]([C@@H](C)O)NC(=O)[C@H](CCN)NC(=O)[C@H](CCN)NC(=O)[C@H](CC(C)C)NC(=O)[C@@H](CC(C)C)NC(=O)[C@H](CCN)NC1=O)[C@@H](C)O [Colistin] (X1-[Dab]T[Dab][Dab][Dab][dL]L[Dab][Dab]T; lactam 4-C (inferred); N-terminus assumed)				MIC [1, 10]: 0.25 µg/mL (≈ 0.214 µM); MIC [2, 10]: 0.25 µg/mL (≈ 0.214 µM); MIC [3, 10]: < 0.0625 µg/mL
Ampicillin/Sulbactam				MIC [1, 10]: 8/4; MIC [2, 10]: 1/4; MIC [3, 10]: > 32/4
CC[C@H]1OC(=O)[C@H](C)[C@@H](O[C@H]2C[C@@](C)(OC)[C@@H](O)[C@H](C)O2)[C@H](C)[C@@H](O[C@@H]2O[C@H](C)C[C@H](N(C)C)[C@H]2O)[C@](C)(O)C[C@@H](C)C(=O)[C@H](C)[C@@H](O)[C@]1(C)O [Erythromycin]				fluorescence intensity of propidium iodide in percent (dead cells) [4]: 64%; living biofilm mass (SYTO™ 9) [5]: 69%
CC(C)(O/N=C(\C(=O)N[C@@H]1C(=O)N2C(C(=O)[O-])=C(C[n+]3ccccc3)CS[C@H]12)c1csc(N)n1)C(=O)O [Ceftazidime]	< 0.25	< 0.25	> 32	
O=C(O)c1cn(C2CC2)c2cc(N3CCNCC3)c(F)cc2c1=O [Ciprofloxacin]			> 4	MIC [1, 11]: 0.0625 µg/mL (≈ 0.189 µM); MIC ([2]; Klebsiella pneumoniae, 17349): < 0.0312 µg/mL
CO/N=C(\C(=O)N[C@@H]1C(=O)N2C(C(=O)O)=C(COC(N)=O)CS[C@H]12)c1ccco1 [Cefuroxime]	2 (≈ 4.71 µM)	1 (≈ 2.36 µM)	> 32	
CC1(C)S[C@@H]2[C@H](NC(=O)[C@H](N)c3ccccc3)C(=O)N2[C@H]1C(=O)O [Ampicillin]	> 32	16 (≈ 45.8 µM)	> 32	
C[C@@H](O)[C@H]1C(=O)N2C(C(=O)O)=C(S[C@@H]3CN[C@H](C(=O)N(C)C)C3)[C@H](C)[C@H]12 [Meropenem]				MIC [1, 11]: < 0.125 µg/mL; MIC ([2]; Klebsiella pneumoniae, 17349): < 0.125 µg/mL; MIC ([3]; Klebsiella pneumoniae, IMT40061): < 0.125 µg/mL
C[C@H]1[C@H](NC(=O)/C(=N\OC(C)(C)C(=O)O)c2csc(N)n2)C(=O)N1S(=O)(=O)O [Aztreonam]	< 0.25	< 0.25	> 16	
GIINTLQKYYCRVRGGRCAVLSCLPKEEQIGKCSTRGRKCCRRKK [hbD3, Human defensin, purchased from PeptaNova GmbH]				biofilm mass, % of the untreated control ([6]; all three strains, concentration not given): less than 40%; biofilm mass reduced to ([6]; concentration and strain not given): ≤ 28%
